Measured values from PubChem BioAssay AID2305 (GlaxoSmithKline (GSK), 2010).

tested on: P. falciparum 3D7 growth, pLDH absorbance; assay: blood-stage malaria parasite growth potency – strain 3D7, dose response (AID 2305)

| SMILES | IC50 [µM] |
| --- | --- |
| Cc1cccc2[nH]c(-c3ccc(-c4cccc(CNCc5cnn(-c6ccccc6)n5)c4)s3)nc12 | 0.55 |
| Cc1[nH]c(C)c(-c2ccc(Oc3cccc(C(F)(F)F)c3)cc2)c(=O)c1Br | 0.01 |
| CCc1cn2c3c(cc(C(=O)N[C@@H](Cc4ccccc4)[C@H](O)CNCC(C)C)cc13)N(C)S(=O)(=O)CC2 | 0.04 |
| Fc1ccc2nc(-c3cccc(-c4cccc(CNCCN5CCNCC5)c4)c3)[nH]c2c1 | 0.84 |
| O=C(/C=C/c1cc(C(F)(F)F)ccc1F)N1CCC(CN2CCC(c3c[nH]c4ccccc34)CC2)CC1 | 0.99 |
| O=C(/C=C/c1ccc(C(F)(F)F)cc1)NCCCCCN1CCC(c2c[nH]c3ccccc23)CC1 | 0.68 |
| NC1CCCN(Cc2ccc(-c3ccc(-c4nc5ccc(F)cc5[nH]4)s3)cc2)C1 (centres undefined) | 0.18 |
| CNC(=O)c1cc(S(=O)(=O)N2CCN(c3ccccn3)CC2)cs1 | 0.67 |
| COc1ccc2c(NN=Cc3ccccc3F)cc(C)nc2c1 | 1 |
| CCN(CC)CCN(Cc1ccc(-c2ccc(C(F)(F)F)cc2)cc1)C(=O)Cn1cc(Cc2cnn(C)c2)c(=O)nc1/C=C/c1ccc(F)cc1 | 1.06 |
| CNC(=O)c1cnc(Nc2ccc3[nH]c(=O)[nH]c3c2)nc1Nc1cccc(OC(C)C)c1 | 0.93 |
| Cc1cccc2[nH]c(-c3cccc(-c4ccc(NC(=O)NCc5cccc(F)c5)cc4)c3)nc12 | 0.24 |
| O=C(/C=C/c1ccc(Cl)c(Cl)c1)NC1CCC(CN2CCC(c3nc4ccccc4n3CCCO)CC2)CC1 (centres undefined) | 0.58 |
| O=C(c1ccc([N+](=O)[O-])o1)N1CCC(Cc2ccc(C(F)(F)F)cc2)CC1 | 0.17 |
| Cn1cncc1C(=O)Nc1cccc(-c2cccc(-c3nc4ccc(F)cc4[nH]3)c2)c1 | 0.49 |
| O=C(/C=C/c1ccc(Cl)c(Cl)c1)NCCCCCN1CCC(NC(=O)c2ccc(F)cc2)CC1 | 0.71 |
| Cn1cnc(CCNC(=O)c2cccc(-c3cccc(-c4nc5ccc(C(F)(F)F)cc5[nH]4)c3)c2)c1 | 0.7 |
| COc1cccc(CNC(=O)[C@@H]2CN(C(=O)c3ccccc3)CCN2)c1 | 1.16 |
| O=S(=O)(c1c(Cl)cc(Cl)cc1Cl)N1CCCCC(c2ccc(C(F)(F)F)cc2)=N1 | 0.1 |
| COc1cc2c(cc1NS(=O)(=O)c1ccc(OCc3ccc(Br)cc3)cc1)CCN(C1CCC1)CC2 | 0.84 |
| O=C(/C=C/c1ccc(Cl)c(Cl)c1)NCCCCCN1CCC(NC(=O)Nc2cccc(F)c2)CC1 | 0.77 |
| Fc1ccc(Nc2ccnc3cc(-c4cccc(CNCCN5CCOCC5)c4)ccc23)c(Cl)c1 | 0.14 |
| Cc1ccc(-c2cc(C(=O)Nc3ccc(S(=O)(=O)N(C)Cc4ccccc4)cc3)[nH]n2)c(O)c1 | 0.85 |
| COc1ccc(NC(=O)/C=C/c2cc(F)cc(C(F)(F)F)c2)cc1OCCN(C(C)C)C(C)C | 0.67 |
| CC(C)(C)c1ccc(CN2CCC(CNC(=O)c3cc(-c4cccc(F)c4)cs3)C2)cc1 (centres undefined) | 0.9 |

| SMILES | IC50 [µM] |
| --- | --- |
| CCCC1N=C(N)N=C(N)N1c1ccc(C)c(C)c1 (centres undefined) | 0.07 |
| Cc1cc(NC2CCCC2)nc(Nc2ccccc2F)n1 | 0.93 |
| CCC(C)(C)c1ccc(S(=O)(=O)Nc2ccc(Cl)c(OCCN3CCCCC3)c2)cc1 | 1.11 |
| CCn1c(C2CCN(CCC3CCN(C(=O)/C=C/c4ccc(Cl)c(Cl)c4)CC3)CC2)nc2ccccc21 | 1.08 |
| CC(C)c1ccc(NS(=O)(=O)c2cccc(C(=O)NC3CCN(CC4CCCCC4)CC3)c2)cc1 | 1.3 |
| CCCCCC(NCCCC)c1ccc(OCCOc2ccc(C(CCCCC)NCCCC)cc2)cc1 (centres undefined) | 1.24 |
| Cc1ccc(Nc2nc3cc(Nc4ccnc(Nc5ccc(CS(C)(=O)=O)cc5)n4)ccc3o2)cc1 | 0.76 |
| Cc1ccc2oc3cc(-c4nn[nH]n4)ccc3c(=O)c2c1 | 0.09 |
| CCc1ccc(NC(=O)C=NN=C(N)N)cc1 | 0.9 |
| COc1ccc(C2C(C(=O)OC3CCCCC3)=C(C)NC3=C2C(=O)CCC3)cc1Br (centres undefined) | 0.58 |
| COc1cccc(-c2nn(C)c3sc(C(=O)NCCN(C)Cc4ccccc4)cc23)c1 | 0.81 |
| CC1CCNc2ccc(Cc3cnc(N)nc3N)cc21 (centres undefined) | 1.04 |
| CCN1CCc2c1cc(C(=O)N[C@@H](Cc1ccccc1)[C@H](O)CNC(C)(C)c1cccc(C(F)(F)F)c1)cc2N1CCCCS1(=O)=O | 0.11 |
| Cn1cncc1C(=O)NC1CCN(c2ccnc(Nc3ccc(F)cc3)n2)C1 (centres undefined) | 0.83 |
| CC(C)N(CC(=O)c1ccc(O)c(C(=O)O)c1)Cc1ccccc1 | 0.19 |
| Clc1ccc(CNCC2CCN(CC3CCCCC3)CC2)cc1Cl | 1 |
| Cc1cc(F)ccc1-c1nc(Nc2ccncc2)c2ccn(C)c2n1 | 0.94 |
| COc1ccc(Nc2nc(NCc3cccc(NS(C)(=O)=O)c3)cc(-c3ccc(OC)cc3)n2)cc1 | 1.22 |
| CCNc1cc(C)nc(Nc2ccc(NC(=O)C3CCCC3)cc2)n1 | 1.12 |
| FC(F)(F)c1cccc(N2CCC(CN3CCC(c4c[nH]c5ccccc45)CC3)CC2)n1 | 0.98 |
| CCCCc1cc(NCC)nc(Nc2ccc(F)cc2)n1 | 0.79 |
| COc1ccc(CNC(=O)NC2CCN(c3ccnc(Nc4ccc(F)cc4)n3)CC2)cc1 | 1.05 |
| Cc1cc(=O)oc2c1ccc1oc(C(O)c3ccc(Cl)cc3)c(C)c12 (centres undefined) | 0.13 |
| C=CCN1C(=O)CN(S(=O)(=O)c2ccc(-n3nc(C)cc3C)cc2)C1=S | 0.94 |
| O=C(O)C[C@H](NC(=O)c1cc(-c2ccc3c(c2)OCO3)no1)C(=O)O (tested in a mixture with another compound) | 0.19 |

| SMILES | IC50 [µM] |
| --- | --- |
| CC(C)(C)c1ccc(CN2CCCCC(NC(=O)c3cc(-c4cccc(F)c4)cs3)C2)cc1 (centres undefined) | 0.78 |
| Cc1nc2ccc3nc(NC(=O)c4ccno4)sc3c2s1 | 0.66 |
| O=C(NCCCCN1CCC(c2cccc3ccccc23)CC1)c1ccc(NC(=O)c2ccc(Cl)cc2)cc1 | 0.78 |
| O=C(Cc1cnc[nH]1)Nc1cccc(-c2ccc(-c3nc4ccc(F)cc4[nH]3)cc2)c1 | 0.81 |
| COc1ccc2nccc(NC(=O)CNCc3ccc(-c4ccccc4)cc3)c2c1 | 0.77 |
| NC1=NC(c2ccccc2)(c2ccccc2)C(=O)N1CCOc1ccccc1 | 0.84 |
| O=C(NCc1ccc(Cl)cc1)c1ccc(C(=O)NCC2CCCN2CC2CCCCC2)cc1 (centres undefined) | 0.85 |
| Cc1c(-c2cccc(NC(=O)C(C)(C)Oc3ccc(Cl)cc3)c2)nc2ncccn12 | 0.17 |
| O=C(NCC1CCCCC1)c1cc(=O)c2ccccc2o1 | 0.32 |
| COc1ccc(S(=O)(=O)NC2CCN(CCCOc3ccnc4cc(Cl)ccc34)C2)cc1OC (centres undefined) | 1.05 |
| CCCCCCNC(=O)C1Cc2c([nH]c3cc(Cl)ccc23)C2(CCN(CCC)CC2)N1 (centres undefined) | 0.88 |
| Cc1nc2nc(N)nc(N)c2c(C)c1Cc1cccc(C(N)=O)c1 | 1.08 |
| COc1cc2c(cc1OC)C(C)(C)CN1Cc3c(c(CO)c(OC)c(OC)c3OC)CC21 (centres undefined) | 0.78 |
| O=[N+]([O-])c1cccc(CNC2CCN(Cc3ccc(-c4ccccc4)cc3)CC2)c1 | 0.23 |
| Cc1cc(NN=Cc2ccccc2Cl)c2ccc(F)cc2n1 | 0.26 |
| CC(Nc1ncc(-c2ccsc2)c(-c2nccs2)n1)c1ccc2c(c1)OCCO2 (centres undefined) | 0.17 |
| Cc1cc2ccccc2c(CON2C(N)=NC(N)=NC2(C)C)c1C | 0.01 |
| O=C(Nc1ccc(N2CCCCC2)c(Cl)c1)c1ncn[nH]1 | 0.45 |
| COc1ccc(Nc2nc(NCc3cccnc3)cc(-c3ccc(OC)cc3)n2)cc1 | 1.4 |
| CCC(C)(C)C1CCc2nc(N)nc(N)c2C1 (centres undefined) | 0.01 |
| CCOC(=O)c1ccc(NC(=O)Nc2ccc(-c3ccc(-c4nc5ccc(C(F)(F)F)cc5[nH]4)cc3)cc2)cc1 | 0.27 |
| Cc1ccc(NC(=O)Nc2cccc(Cl)c2)cc1-c1ccc(C(=O)Nc2ccncc2)cc1 | 0.74 |
| COc1ccc(S(=O)(=O)N(CC(=O)NN=C(C)c2cccs2)c2cc(C)cc(C)c2)cc1OC | 0.14 |
| O=C(/C=C/c1ccc(Cl)c(Cl)c1)N(Cc1ccccc1)C1CCC(CN2CCC(c3c[nH]c4ccccc34)CC2)CC1 (centres undefined) | 0.21 |
| O=C(c1ccco1)c1cn(CCOc2ccccc2)c2ccccc12 | 0.75 |

| SMILES | IC50 [µM] |
| --- | --- |
| COc1cc2c(cc1OCCN1CCC(N)CC1)N(C(=O)/C=C/c1ccccc1Cl)CC2 | 1.12 |
| CCCCCCCN(Cc1ccc(OC(C)(C)C(=O)OCC)cc1)C(=O)Nc1ccccc1OCC | 1.03 |
| OC(CNc1ccnc(Nc2cccc(Cl)c2)n1)c1ccccc1C(F)(F)F (centres undefined) | 0.9 |
| COc1ccc(NC(=O)/C=C/c2ccc(-c3ccccc3)cc2)cc1N1CCN(C)CC1 | 0.91 |
| CC(C)(C)c1cc(C(=O)N2CCN(c3nccnc3C#N)CC2)n(Cc2ccccc2)n1 | 0.76 |
| CCN1CCN(c2cc(C)c3cc(NC(=O)c4ccc(N(CC)CC)cc4)ccc3n2)CC1 | 0.96 |
| Cc1cccc(C(=O)Nc2ccnc(N(C)C3CCN(Cc4cccc(O)c4)CC3)c2)c1 | 0.94 |
| Cc1cc(N[C@@H](CC(C)C)C(=O)Nc2ccccc2)nc(NCCc2ccccc2)n1 | 0.89 |
| CN(Cc1cccc(F)c1)C1CCCN(c2cc(NC(=O)c3ccccc3)ccn2)C1 (centres undefined) | 0.92 |
| Cc1ccc(OC2CCN(c3ccc(C(=O)NC4CC4)cn3)CC2)cc1 | 1.3 |
| CCOC(=O)NCC(=O)Nc1cccc(-c2cccc(-c3nc4c(C)cccc4[nH]3)c2)c1 | 0.74 |
| Cc1[nH]c(C)c(-c2ccc(OCc3ccc(OC(F)(F)F)cc3)nc2)c(=O)c1Cl | 0.07 |
| O=C(Nc1ccc(-c2nc3ccccc3[nH]2)cc1)c1cccc(S(=O)(=O)N2CCCC2)c1 | 0.74 |
| Cc1cccc(CN2CCC(CNC(=O)c3cc4c(-c5ccccc5F)nn(C)c4s3)CC2)c1 | 1.09 |
| CC1CN=C(c2ccc(NC(=O)Nc3ccc(C4=NCC(C)N4)cc3)cc2)N1 (centres undefined) | 0.38 |
| CS(=O)(=O)CCCNCc1ccc(-c2cc3c(Nc4ccc(OCc5ccccc5)cc4)ncnc3cn2)o1 | 0.65 |
| COc1ccc(CCn2c(=N)c(C(=O)NCc3ccc(C)cc3)cc3c(=O)n4ccccc4nc32)cc1 | 1.13 |
| COc1cc(Nc2ccnc3cc(-c4nccs4)ccc23)ccc1OCCCc1nc2ccccc2[nH]1 | 0.24 |
| O=C(Nc1cccc(-c2csc(-c3nc4ccccc4[nH]3)c2)c1)c1cccnc1 | 0.23 |
| Cc1nc2ccccc2n1C1C[C@H]2CC[C@@H](C1)N2CCCC1(c2ccccc2)CCN(C(=O)OCc2ccccc2)CC1 (some centres undefined) | 1 |
| CC(=O)c1c(CC(=O)O)c2ccccc2n1O | 0.74 |
| COc1ccc(-c2cc3ncnc(N4CCN(CCN5CCCC5)CC4)c3s2)cc1 | 0.83 |
| N#Cc1ccc(CN2CCC(NC(=O)c3ccc(-c4nnc(-c5cccc6ccccc56)o4)cc3)CC2)cc1 | 0.68 |
| CS(=O)(=O)N1CC2(CCN(CCC(NC(=O)NCc3ccc(Cl)c(Cl)c3)c3ccc(Cl)c(Cl)c3)CC2)c2ccccc21 (centres undefined) | 0.8 |
